Experimental data from article PMC9267659, “Directed Evolution of Phi Class Glutathione Transferases Involved in Multiple-Herbicide Resistance of Grass Weeds and Crops” (International Journal of Molecular Sciences, 2022).
Changes are numbered by the printed parent chain.

Assays:
sh101 [1] = test system: T1, sh101; assay: steady-state kinetics, CDNB conjugation; format: biochemical, Alopecurus myosuroides; details: co-substrate GSH; 0.1 M sodium phosphate pH 6.5, 37 °C; nH 1.1; read-out: S0.5 (mM) / CDNB
T1 construct: gene AmGSTF; DNA-shuffled GSTF, 11 mutations vs AmGSTF (named in text: S90G, E93K, Q119E, F122I, M125L, DEK132-134NQT)
Text: steady-state kinetics, CDNB conjugation on sh101

LrGSTF [2] = target: T2, LrGSTF (Lolium rigidum, UniProt M5BPX4); assay: steady-state kinetics, CDNB conjugation; format: biochemical; details: read-out: S0.5 (mM) / CDNB; co-substrate GSH; 0.1 M sodium phosphate pH 6.5, 37 °C; positive cooperativity, nH 1.41
T2 construct: gene GST; full length, synthetic gene, His-tagged (C-His vector), E. coli, Ni-IDA-Sepharose purified, homodimer
T2 sequence (M5BPX4 1-219): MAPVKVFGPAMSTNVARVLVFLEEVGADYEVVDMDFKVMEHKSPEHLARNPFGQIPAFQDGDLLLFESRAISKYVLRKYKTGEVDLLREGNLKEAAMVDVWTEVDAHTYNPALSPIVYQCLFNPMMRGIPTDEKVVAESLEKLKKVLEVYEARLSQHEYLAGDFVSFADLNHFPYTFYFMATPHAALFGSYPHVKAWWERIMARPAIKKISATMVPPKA
Text: steady-state kinetics, CDNB conjugation on LrGSTF

sh155 [3] = test system: T3, sh155; assay: steady-state kinetics, CDNB conjugation; format: biochemical, Alopecurus myosuroides; details: co-substrate GSH; 0.1 M sodium phosphate pH 6.5, 37 °C; nH 1.02; read-out: S0.5 (mM) / CDNB
T3 construct: gene AmGSTF; DNA-shuffled GSTF, 17 mutations vs AmGSTF (named in text: S90G, E93K, Q119E, F122I, M125L, DEK132-134NQT)
Text: steady-state kinetics, CDNB conjugation on sh155

AmGSTF [4] = target: T4, AmGSTF (Alopecurus myosuroides, UniProt Q9ZS17); assay: steady-state kinetics, CDNB conjugation; format: biochemical; details: read-out: S0.5 (mM) / CDNB; co-substrate GSH; 0.1 M sodium phosphate pH 6.5, 37 °C; positive cooperativity, nH 1.5
T4 construct: gene GST2c; full length, synthetic gene, His-tagged (C-His vector), E. coli, Ni-IDA-Sepharose purified, homodimer
T4 sequence (Q9ZS17 1-219): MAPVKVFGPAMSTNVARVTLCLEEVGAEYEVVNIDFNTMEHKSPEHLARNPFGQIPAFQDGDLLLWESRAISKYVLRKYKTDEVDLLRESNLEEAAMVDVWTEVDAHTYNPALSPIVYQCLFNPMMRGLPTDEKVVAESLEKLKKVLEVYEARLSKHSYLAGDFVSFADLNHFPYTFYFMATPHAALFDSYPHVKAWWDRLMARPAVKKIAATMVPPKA
Text: steady-state kinetics, CDNB conjugation on AmGSTF

TdGSTF [5] = target: T5, TdGSTF (Triticum turgidum, UniProt A0A9R0QM20); assay: steady-state kinetics, CDNB conjugation; format: biochemical; details: read-out: S0.5 (mM) / CDNB; co-substrate GSH; 0.1 M sodium phosphate pH 6.5, 37 °C; positive cooperativity, nH 1.43
T5 construct: gene TRITD_1Bv1G036980; full length, pEXP5-CT/TOPO template, His-tagged, E. coli, Ni-IDA-Sepharose purified, homodimer
T5 sequence (A0A9R0QM20 1-219): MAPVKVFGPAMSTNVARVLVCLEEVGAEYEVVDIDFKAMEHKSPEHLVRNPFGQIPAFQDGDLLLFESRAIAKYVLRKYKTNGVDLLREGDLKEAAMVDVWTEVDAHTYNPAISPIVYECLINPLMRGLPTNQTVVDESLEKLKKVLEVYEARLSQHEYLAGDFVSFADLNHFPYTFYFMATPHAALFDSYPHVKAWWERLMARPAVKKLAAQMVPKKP
Text: steady-state kinetics, CDNB conjugation on TdGSTF

HvGSTF [6] = target: T6, HvGSTF (Hordeum vulgare, UniProt Q8VWW3); assay: steady-state kinetics, CDNB conjugation; format: biochemical; details: read-out: S0.5 (mM) / CDNB; co-substrate GSH; 0.1 M sodium phosphate pH 6.5, 37 °C; positive cooperativity, nH 1.46
T6 construct: gene GST6; full length, pEXP5-CT/TOPO template, His-tagged, E. coli, Ni-IDA-Sepharose purified, homodimer
T6 sequence (Q8VWW3 1-219): T5 sequence (A0A9R0QM20 1-219) with N82D, G83E, D91N, I113L, E158K, R200S, V207I
Text: steady-state kinetics, CDNB conjugation on HvGSTF

TdGSTF [7] = target: T5, TdGSTF; assay: dose-response inhibition of GST activity; format: biochemical
Text: dose-response inhibition of GST activity on TdGSTF

sh155 [8] = test system: T3, sh155; assay: dose-response inhibition of GST activity; format: biochemical, Alopecurus myosuroides
Text: dose-response inhibition of GST activity on sh155

sh49 = test system: T7, sh49; assay: dose-response inhibition of GST activity; format: biochemical, Alopecurus myosuroides
T7 construct: gene AmGSTF; keeps F122, M125, E93 and DEK132-134 of AmGSTF; C-His, E. coli, dimer
Text: dose-response inhibition of GST activity on sh49

sh168 = test system: T8, sh168; assay: dose-response inhibition of GST activity; format: biochemical, Alopecurus myosuroides
T8 construct: gene AmGSTF; has K93; keeps F122, M125 and DEK132-134 of AmGSTF; C-His, E. coli, dimer
Text: dose-response inhibition of GST activity on sh168

LrGSTF [9] = target: T2, LrGSTF; assay: dose-response inhibition of GST activity; format: biochemical
Text: dose-response inhibition of GST activity on LrGSTF

AmGSTF [10] = target: T4, AmGSTF; assay: dose-response inhibition of GST activity; format: biochemical
Text: dose-response inhibition of GST activity on AmGSTF

sh101 [11] = test system: T1, sh101; assay: dose-response inhibition of GST activity; format: biochemical, Alopecurus myosuroides
Text: dose-response inhibition of GST activity on sh101

HvGSTF [12] = target: T6, HvGSTF; assay: dose-response inhibition of GST activity; format: biochemical
Text: dose-response inhibition of GST activity on HvGSTF

SMILES	Km (sh101 [1]) [mM]	Km (LrGSTF [2]) [mM]	Km (sh155 [3]) [mM]	Km (AmGSTF [4]) [mM]	Km (TdGSTF [5]) [mM]	Km (HvGSTF [6]) [mM]	IC50 (TdGSTF [7]) [µM]	IC50 (sh155 [8]) [µM]	IC50 (sh49) [µM]	IC50 (sh168) [µM]	IC50 (LrGSTF [9]) [µM]	IC50 (AmGSTF [10]) [µM]	IC50 (sh101 [11]) [µM]	IC50 (HvGSTF [12]) [µM]
O=[N+]([O-])c1ccc(Cl)c([N+](=O)[O-])c1 [CDNB]	0.41 ± 0.02	0.76 ± 0.04	0.77 ± 0.06	0.65 ± 0.03	0.51 ± 0.02	0.52 ± 0.01								
CCCCOCN(C(=O)CCl)c1c(CC)cccc1CC [butachlor]							9.9 ± 0.2	3.4 ± 0.1	2.6 ± 0.04	3.1 ± 0.08	7.1 ± 0.5	7.3 ± 0.4	5.9 ± 0.4	9.2 ± 0.6
